Read-outs that look alike come from different tables or passages of the source.
Tests used:
Wistar rat heart PBR = target: T1, Wistar rat heart PBR (Rattus norvegicus, UniProt P16257); assay: In vitro potency assay, competition binding against [3H]PK-11195, rat heart PBR
T1 construct: from tissue; host or cells: Wistar rat heart
Protocol: (§1) Affinity for PBR was screened using a method adapted from Le Fur et al (Life Sci. 1983; USA 33: 449-57). Non-radioactive analogues of the PET tracer of the invention and the associated racemate were tested. Each test compound (dissolved in 50 mM Tris-HCl, pH 7.4, 10 mM MgCl2 containing 1% DMSO) competed for binding to either Wistar rat heart PBR or human PBR against 0.3 nM [^3H] PK-11195. The reaction was carried out in 50 mM Tris-HCl, pH 7.4 10 mM MgCl2 for 15 minutes at 25° C.

human PBR = human PBR (Homo sapiens, UniProt P30536); assay: In vitro potency assay, competition binding against [3H]PK-11195, human PBR
Sequence of human PBR (P30536 whole entry): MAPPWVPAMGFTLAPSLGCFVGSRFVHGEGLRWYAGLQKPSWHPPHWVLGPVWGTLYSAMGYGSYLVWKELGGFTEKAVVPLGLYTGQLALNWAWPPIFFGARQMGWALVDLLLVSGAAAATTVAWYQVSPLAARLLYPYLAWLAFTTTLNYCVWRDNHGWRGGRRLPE
Protocol: as §1

In vivo biodistribution = conditions: for OB:Str 30 min: olfactory bulb to striata ratio; for OB:Str 30 min / OB 30 min: 30 min after injection; for OB 30 min: olfactory bulb, i.v.; for OB 30 min / Brain 2 min: rat; for Brain 2 min: i.v. tail vein, 2 min after injection
Protocol: Adult male Wistar rats (200-300 g) were injected with 1-3 MBq of test compound via the lateral tail vein. At 2, 10, 30 or 60 min (n=3) after injection, rats were euthanised and tissues or fluids were sampled for radioactive measurement on a gamma counter.

PBR [1] = target: T2, PBR (Rattus norvegicus, UniProt P16257); assay: In vivo blocking assay (biodistribution after pre-administration of PK11195 or non-radioactive analogue); design: species or system Wistar rats; conditions: 30 min after injection; for Blood (% of vehicle), PK11195 block / Lungs (% of vehicle), PK11195 block / Muscle (% of vehicle), PK11195 block / Olfactory bulb uptake (% of vehicle), PK11195 block / Striata uptake (% of vehicle), PK11195 block: PK11195 3 mg/kg 5 min before tracer; for Blood (% of vehicle), Non-radioactive Analogue block / Lungs (% of vehicle), Non-radioactive Analogue block / Muscle (% of vehicle), Non-radioactive Analogue block / Olfactory bulb uptake (% of vehicle), Non-radioactive Analogue block / Striata uptake (% of vehicle), Non-radioactive Analogue block: non-radioactive analogue 3 mg/kg 5 min before tracer
T2 construct: Various tissues including brain stem and olfactory bulb were removed from the animals; from tissue; host or cells: Wistar rat, in vivo tissues (A7); frozen sections of brain stem and olfactory bulb (A8)
Protocol: The in vivo biodistributions of the PET tracer of the invention compared with its associated racemate were tested after pre-administration of their respective non-radioactive analogues, or pre-administration of the known PBR-specific ligand, PK11195.
PK11195 or a non-radioactive analogue (both at 3 mg/kg) was administered 5 min before the radiolabelled test compound.

PBR [2] = target: T2, PBR; assay: Facial nerve axotomy model of inflammation, in vitro autoradiography of tissue sections; format: binding, Wistar rats; conditions: for Naïve brain stem % specific binding, Unlabelled ligand / Olfactory bulb % specific binding, Unlabelled ligand / FNA brain stem % specific binding, Unlabelled ligand: blocked with non-radioactive PET tracer at 1 μM; for Naïve brain stem % specific binding, PK11195 / Olfactory bulb % specific binding, PK11195 / FNA brain stem % specific binding, PK11195: blocked with non-radioactive PK11195 at 1 μM; for FNA brain stem % specific binding, Unlabelled ligand / FNA brain stem % specific binding, PK11195: facial nerve axotomy
Protocol: Binding to a focal site of neuroinflammation was tested by autoradiography.
Male Wistar rats (200-300 g) were either used naïve, or underwent a facial nerve axotomy according to the procedure described by Graeber and Kreutzberg (J Neurocytol 1986; 15: 363-373). Various tissues including brain stem and olfactory bulb were removed from the animals and rapidly frozen in isopentane then stored at −70° C. until use. Tissues were sectioned (12 μm) and thaw-mounted onto Superfrost Plus slides. Slides were stored at −70° C. until use.
The slides were air dried prior to pre-incubation in Tris-HCl buffer (170 mM, pH 7.4) for 5 min at room temperature. 1000-fold excess of non-radioactive PK11195 at 1 μM, or non-radioactive PET tracer of the invention at 1 μM was added prior to incubation with Tris-HCl buffer (170 mM, pH 7.4) containing […] of test compound for 60 minutes. The reaction was then terminated by rinsing the sections two times for 5 mins each in ice-cold buffer (Tris-HCl, 170 mM, pH 7.4) and then the slides were dipped briefly in distilled water to rinse. Next the slides were dried in air and exposed to x-ray film. When exposing to x-ray film, a reference standard was included, for in vitro autoradiography a reference sample (20μ) was taken from the solution and placed on filter paper (taped onto a glass) and exposed together with the sections. The film was exposed for 24 hours and the data were analysed by drawing regions of interest around the specific anatomic structures as well as around the blocked samples, references and background using MCID software using a density gradient scale as a calibration curve adjusted to the reference sample.

[3] = In vivo metabolism study (% parent in brain and plasma by HPLC); conditions: for Brain (% parent) 10 min pi / Brain (% parent) 30 min pi / Brain (% parent) 60 min pi: rat brain; for Brain (% parent) 10 min pi / Plasma (% parent) 10 min pi: 10 min post injection; for Brain (% parent) 30 min pi / Plasma (% parent) 30 min pi: 30 min post injection; for Brain (% parent) 60 min pi / Plasma (% parent) 60 min pi: 60 min post injection; for Plasma (% parent) 10 min pi / Plasma (% parent) 30 min pi / Plasma (% parent) 60 min pi: rat plasma
Protocol: The amount of brain or plasma activity that was due to parent test compound was tested up to 1 hour post-administration.
Adult male Wistar rats (150-200 g) were injected with approximately 20 MBq of test compound. Brain and plasma samples were analysed by HPLC at 10, 30 and 60 minutes pi.

[4] = In vitro chiral stability assay in human plasma; format: in vitro ADME; conditions: non-radioactive; 37° C., 4 hours; chiral HPLC
Protocol: (§2) The non-radioactive PET tracer of the invention obtained according to Example 2 was incubated (37° C.) in human plasma or in rat liver S9 fraction up to 4 hours. The enantiomers were extracted from the biological material by precipitation of proteins. The solid precipitate was separated from the liquid phase, which was evaporated to dryness. The dry residue was dissolved in acetonitrile.
(§3) A Dionex Ultimate 3000 HPLC system consisting of two pumps (micro pump LPG-3000 and Ultimate 3000 pump), a UV/visible detector, an auto sampler and two switching valves was applied in this study. One switching valve was connecting the two pumps and the auto sampler. This set-up made it possible to use either of the pumps to inject into the column. The pump used for injection was connected to the SPE column only. After the injection and elution the SPE column was washed using the injection pump. The system was made ready for a new injection while the chiral analysis was ongoing.
(§4) The other switching valve connected the analytical column and the SPE column. […]
(§5) Elution from the SPE column and separation: The elution started using mobile phase mixture of 10% MeCN and 90% 10 mM ammonium acetate. […] The analytical column was washed for 3 min using 70% MeCN/MeOH and then stabilized at 10% MeCN/MeOH to make the separation system ready for the next injection. […]

[5] = In vitro chiral stability assay in rat liver S9 fraction; format: in vitro ADME; conditions: non-radioactive; 37° C., 4 hours; chiral HPLC
Protocol: as §2, §3, §4, §5

[6] = non-radioactive analogues tested, against 0.3 nM [3H]PK-11195, 15 minutes at 25° C., read-out: Rat Heart Ki
[7] = non-radioactive analogues tested, against 0.3 nM [3H]PK-11195, 15 minutes at 25° C., read-out: Human Ki

Structure (SMILES)	Ki (Wistar rat heart PBR; [6]) [nM]	Ki (human PBR; [7]) [nM]	OB:Str 30 min (In vivo biodistribution)	OB 30 min (In vivo biodistribution) [% ID/g]	Brain 2 min (In vivo biodistribution) [% ID/g]	Blood (% of vehicle), PK11195 block (PBR [1])	Lungs (% of vehicle), PK11195 block (PBR [1])	Muscle (% of vehicle), PK11195 block (PBR [1])	Olfactory bulb uptake (% of vehicle), PK11195 block (PBR [1])	Striata uptake (% of vehicle), PK11195 block (PBR [1])	Blood (% of vehicle), Non-radioactive Analogue block (PBR [1])	Lungs (% of vehicle), Non-radioactive Analogue block (PBR [1])	Muscle (% of vehicle), Non-radioactive Analogue block (PBR [1])	Olfactory bulb uptake (% of vehicle), Non-radioactive Analogue block (PBR [1])	Striata uptake (% of vehicle), Non-radioactive Analogue block (PBR [1])	Naïve brain stem % specific binding, Unlabelled ligand (PBR [2]) [% specific binding]	Olfactory bulb % specific binding, Unlabelled ligand (PBR [2]) [% specific binding]	Naïve brain stem % specific binding, PK11195 (PBR [2]) [% specific binding]	Olfactory bulb % specific binding, PK11195 (PBR [2]) [% specific binding]	FNA brain stem % specific binding, Unlabelled ligand (PBR [2]) [% specific binding]	other results
CCN(CC)C(=O)[C@@H]1CCCc2c1c1c(OC)cccc1n2CC[18F] [Alternative Enantiomer]	3.87	14.1	2.9	0.23	0.53	–	–	–	–	–	–	–	–	–	–	–	–	–	–	–	–
CCN(CC)C(=O)C1CCCc2c1c1c(OC)cccc1n2CC[18F] (racemic) [Racemate]	–	–	3.0	0.36	0.52	247 % of vehicle	13 % of vehicle	90 % of vehicle	37 % of vehicle	114 % of vehicle	289 % of vehicle	11 % of vehicle	140 % of vehicle	59 % of vehicle	124 % of vehicle	21	59	13	67	72	Ki (Wistar rat heart PBR): 1.47 nM; Ki (human PBR): 11.5 nM; FNA brain stem % specific binding, PK11195 (PBR [2]): 69 % specific binding; Brain (% parent) 10 min pi [3]: 100 ± 0 % parent; Brain (% parent) 30 min pi [3]: 97 ± 1 % parent; Brain (% parent) 60 min pi [3]: 91 ± 2 % parent; Plasma (% parent) 10 min pi [3]: 81 ± 4 % parent; Plasma (% parent) 30 min pi [3]: 49 ± 12 % parent; Plasma (% parent) 60 min pi [3]: 28 ± 1 % parent
CCN(CC)C(=O)[C@H]1CCCc2c1c1c(OC)cccc1n2CC[18F] [PET Tracer of Invention]	0.87	9.17	3.2	0.45	0.53	289 % of vehicle	14 % of vehicle	131 % of vehicle	43 % of vehicle	117 % of vehicle	253 % of vehicle	12 % of vehicle	143 % of vehicle	37 % of vehicle	114 % of vehicle	70	77	70	75	86	racemisation after incubation in human plasma [4]: No racemisation was observed; racemisation after incubation in rat liver S9 fraction [5]: did not racemise; FNA brain stem % specific binding, PK11195 (PBR [2]): 86 % specific binding; Brain (% parent) 10 min pi [3]: 98 ± 2 % parent; Brain (% parent) 30 min pi [3]: 96 ± 2 % parent; Brain (% parent) 60 min pi [3]: 94 ± 2 % parent; Plasma (% parent) 10 min pi [3]: 70 ± 18 % parent; Plasma (% parent) 30 min pi [3]: 41 ± 16 % parent; Plasma (% parent) 60 min pi [3]: 21 ± 5 % parent

— patent publication US8501153B2, “Active enantiomer” (GE Healthcare Limited, priority 2009, dated 2013)
